Tests used:
[1] = Cytotoxicity against human LOXIMVI cells after 24 hrs by SRB assay; assay type: functional, cell-based; details: LOX IMVI
[2] = system: SK-MEL-28; assay: Cytotoxicity against human SK-MEL-28 cells assessed as cell growth at 10^-7 M after 24 hrs by SRB assay; assay type: functional; details: SK-MEL-28, 24 h, read-out: Activity
[3] = Cytotoxicity against human UO31 cells assessed as cell growth at 10^-6 M after 24 hrs by SRB assay; assay type: functional; details: UO-31, 24 h, read-out: Activity
[4] = system: NCI-H522; assay: Cytotoxicity against human NCI-H522 cells assessed as cell growth at 10^-5 M after 24 hrs by SRB assay; assay type: functional; details: NCI-H522, 24 h, read-out: Activity
[5] = system: A498; assay: Cytotoxicity against human A498 cells assessed as cell growth at 10^-4 M after 24 hrs by SRB assay; assay type: functional; details: A498, 24 h, read-out: Activity
[6] = system: NCI-H226; assay: Cytotoxicity against human NCI-H226 cells assessed as cell growth at 10^-8 M after 24 hrs by SRB assay; assay type: functional; details: NCI-H226, 24 h, read-out: Activity
[7] = Cytotoxicity against human SF295 cells assessed as cell growth at 10^-6 M after 24 hrs by SRB assay; assay type: functional; details: SF-295, 24 h, read-out: Activity
[8] = Cytotoxicity against human UACC62 cells assessed as cell growth at 10^-5 M after 24 hrs by SRB assay; assay type: functional; details: UACC-62, 24 h, read-out: Activity
[9] = Cytotoxicity against human OVCAR5 cells assessed as cell growth at 10^-4 M after 24 hrs by SRB assay; assay type: functional; details: OVCAR-5, 24 h, read-out: Activity
[10] = system: HT-29; assay: Cytotoxicity against human HT-29 cells assessed as cell growth at 10^-8 M after 24 hrs by SRB assay; assay type: functional; details: HT-29, 24 h, read-out: Activity
[11] = Cytotoxicity against human OVCAR5 cells assessed as cell growth at 10^-6 M after 24 hrs by SRB assay; assay type: functional; details: OVCAR-5, 24 h, read-out: Activity
[12] = Cytotoxicity against human UO31 cells assessed as cell growth at 10^-4 M after 24 hrs by SRB assay; assay type: functional; details: UO-31, 24 h, read-out: Activity
[13] = Cytotoxicity against human LOXIMVI cells assessed as cell growth at 10^-5 M after 24 hrs by SRB assay; assay type: functional; details: LOX IMVI, read-out: Activity
[14] = system: 786-0; assay: Cytotoxicity against human 786-0 cells assessed as cell growth at 10^-4 M after 24 hrs by SRB assay; assay type: functional; details: 786-0, 24 h, read-out: Activity
[15] = Cytotoxicity against human MOLT4 cells assessed as cell growth at 10^-8 M after 24 hrs by SRB assay; assay type: functional; details: MOLT-4, 24 h, read-out: Activity
[16] = Cytotoxicity against human SNB19 cells after 24 hrs by SRB assay; assay type: functional; details: SNB-19, 24 h
[17] = Cytotoxicity against human OVCAR8 cells after 24 hrs by SRB assay; assay type: functional; details: OVCAR-8, 24 h
[18] = system: CCRF-CEM; assay: Cytotoxicity against human CCRF-CEM cells assessed as cell growth at 10^-7 M after 24 hrs by SRB assay; assay type: functional; details: read-out: Activity
[19] = Cytotoxicity against human RXF393 cells after 24 hrs by SRB assay; assay type: functional, cell-based; details: RXF 393, 24 h
[20] = system: U-251; assay: Cytotoxicity against human U251 cells assessed as cell growth at 10^-6 M after 24 hrs by SRB assay; assay type: functional; details: U-251, 24 h, read-out: Activity
[21] = system: M14; assay: Cytotoxicity against human M14 cells assessed as cell growth at 10^-6 M after 24 hrs by SRB assay; assay type: functional; details: M14, 24 h, read-out: Activity
[22] = Cytotoxicity against human RPMI8226 cells assessed as cell growth at 10^-5 M after 24 hrs by SRB assay; assay type: functional; details: RPMI-8226, 24 h, read-out: Activity
[23] = system: MCF7; assay: Cytotoxicity against human MCF7 cells assessed as cell growth at 10^-8 M after 24 hrs by SRB assay; assay type: functional; details: MCF7, 24 h, read-out: Activity
[24] = Cytotoxicity against human IGROV1 cells assessed as cell growth at 10^-6 M after 24 hrs by SRB assay; assay type: functional; details: IGROV-1, 24 h, read-out: Activity
[25] = system: MCF7; assay: Cytotoxicity against human MCF7 cells after 24 hrs by SRB assay; assay type: functional; details: MCF7, 24 h
[26] = system: M14; assay: Cytotoxicity against human M14 cells assessed as cell growth at 10^-7 M after 24 hrs by SRB assay; assay type: functional; details: M14, 24 h, read-out: Activity
[27] = system: M14; assay: Cytotoxicity against human M14 cells after 24 hrs by SRB assay; assay type: functional, cell-based; details: M14, 24 h
[28] = system: NCI-H23; assay: Cytotoxicity against human NCI-H23 cells assessed as cell growth at 10^-7 M after 24 hrs by SRB assay; assay type: functional; details: NCI-H23, 24 h, read-out: Activity
[29] = Cytotoxicity against human IGROV1 cells after 24 hrs by SRB assay; assay type: functional; details: IGROV-1, 24 h
[30] = system: MDA-MB-435; assay: Cytotoxicity against human MDA-MB-435 cells assessed as cell growth at 10^-5 M after 24 hrs by SRB assay; assay type: functional; details: MDA-MB-435, 24 h, read-out: Activity
[31] = Cytotoxicity against human HOP92 cells assessed as cell growth at 10^-5 M after 24 hrs by SRB assay; assay type: functional; details: HOP-92, 24 h, read-out: Activity
[32] = Cytotoxicity against human SNB19 cells assessed as cell growth at 10^-8 M after 24 hrs by SRB assay; assay type: functional; details: SNB-19, 24 h, read-out: Activity
[33] = system: SK-MEL-2; assay: Cytotoxicity against human SK-MEL-2 cells assessed as growth inhibition at 10 uM after 24 hrs by SRB assay; assay type: functional; details: SK-MEL-2, 24 h, read-out: GI
[34] = read-out: LC50 (the source's name)
[35] = read-out: pLC50 (the source's name) (converted)

O=C(Nc1cc(-c2cccnc2)nc(NCCCN2CCOCC2)n1)c1cc(Br)cc(C(F)(F)F)c1
IC50 [1]: 1.62 µM
GI50 ([1]; read-out: GI50): 1.62 µM
CC50 [1, 34]: 5.79 µM
TGI ([1]; read-out: TGI): 3.06 µM
GI50 ([1]; read-out: pGI50 (converted)): 1.62 µM
CC50 [1, 35]: 5.75 µM
TGI ([1]; read-out: pTGI (converted)): 3.09 µM
growth at 0.1 µM [2]: 91%
growth at 1 µM [3]: 69%
growth at 10 µM [4]: -32%
growth at 100 µM [5]: -91%
growth at 0.01 µM [6]: 92%
growth at 1 µM [7]: 97%
growth at 10 µM [8]: -50%
growth at 100 µM [9]: -67%
growth at 0.01 µM [10]: 100%
growth at 1 µM [11]: 92%
growth at 100 µM [12]: -90%
growth at 10 µM [13]: -93%
growth at 100 µM [14]: -87%
growth at 0.01 µM [15]: 99%
GI50 ([16]; read-out: GI50): 2.5 µM
CC50 [16, 34]: 21.5 µM
TGI ([16]; read-out: TGI): 5.75 µM
GI50 ([16]; read-out: pGI50 (converted)): 2.51 µM
CC50 [16, 35]: 21.4 µM
TGI ([16]; read-out: pTGI (converted)): 5.75 µM
GI50 ([17]; read-out: GI50): 2.98 µM
CC50 [17, 34]: 39.4 µM
TGI ([17]; read-out: TGI): 8.59 µM
GI50 ([17]; read-out: pGI50 (converted)): 2.95 µM
CC50 [17, 35]: 39.8 µM
TGI ([17]; read-out: pTGI (converted)): 8.51 µM
growth at 0.1 µM [18]: 105%
IC50 [19]: 1.8 µM
GI50 ([19]; read-out: GI50): 1.8 µM
CC50 [19, 34]: 7.23 µM
TGI ([19]; read-out: TGI): 3.61 µM
GI50 ([19]; read-out: pGI50 (converted)): 1.82 µM
CC50 [19, 35]: 7.24 µM
TGI ([19]; read-out: pTGI (converted)): 3.63 µM
growth at 1 µM [20]: 98%
growth at 1 µM [21]: 87%
growth at 10 µM [22]: -1%
growth at 0.01 µM [23]: 95%
growth at 1 µM [24]: 92%
GI50 ([25]; read-out: GI50): 2.17 µM
CC50 [25, 34]: 44.8 µM
TGI ([25]; read-out: TGI): 9.22 µM
GI50 ([25]; read-out: pGI50 (converted)): 2.24 µM
CC50 [25, 35]: 44.7 µM
TGI ([25]; read-out: pTGI (converted)): 9.12 µM
growth at 0.1 µM [26]: 95%
GI50 [27]: 1.66 µM
CC50 [27, 34]: 6.59 µM
TGI ([27]; read-out: TGI): 3.32 µM
CC50 [27, 35]: 6.61 µM
TGI ([27]; read-out: pTGI (converted)): 3.31 µM
growth at 0.1 µM [28]: 98%
GI50 ([29]; read-out: GI50): 4.67 µM
CC50 [29, 34]: 60.5 µM
TGI ([29]; read-out: TGI): 19.5 µM
GI50 ([29]; read-out: pGI50 (converted)): 4.68 µM
CC50 [29, 35]: 60.3 µM
TGI ([29]; read-out: pTGI (converted)): 19.5 µM
growth at 10 µM [30]: -90%
growth at 10 µM [31]: -10%
growth at 0.01 µM [32]: 97%

COCCCNc1nc(NC(=O)c2cc(OC)cc(OC)c2)cc(-c2cccnc2)n1
inhibition of growth at 10 µM [33]: 21.2%
